According to US11202792B2, “CD99 inhibitors and their uses” (GEORGETOWN UNIVERSITY, priority 2016, dated 2021):

How the values were obtained:
TC-71 ES cells = experiment: Cell viability IC50, TC-71; type: cell-based, human; details: TC-71 cells, WST-1, 48 h (FIG. 10B)
[1] = system: TC-71, 6647 and RDES ES cells; experiment: Soft agar colony formation assay, ES cells; type: cell-based, human; details: dose-dependent
Protocol: Anchorage-independent growth was determined in 0.33% agarose (Sea-Plaque Agarose, Lonza) with a 0.5% agarose underlay. […] Colonies were counted after 7-12 days.

[2] = target: T1, recombinant human full-length CD99 (Homo sapiens, UniProt P14209); experiment: SPR binding kinetics, recombinant human full-length CD99 (Biacore T200); details: full-length CD99 produced in HEK293 cells, immobilized by amine coupling
T1 construct: Purified recombinant human full-length CD99 produced in HEK293 cells was purchased from Origene; purchased Origene #TP304056; host or cells: HEK293
T1 sequence (P14209 23-185): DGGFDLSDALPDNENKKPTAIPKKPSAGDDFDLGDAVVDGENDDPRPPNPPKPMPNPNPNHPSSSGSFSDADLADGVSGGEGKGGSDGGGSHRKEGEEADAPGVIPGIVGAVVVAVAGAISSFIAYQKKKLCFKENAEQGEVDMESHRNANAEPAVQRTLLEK
Protocol: The initial binding screening of the NCI/DTP chemical libraries was performed on a Biacore T200 instrument at room temperature using a neutravidin-coated CM5 chip (GE Healthcare Bio-Sciences) coupled with biotinylated CD99-ECD on one flow cell at levels of ˜3,000 response units (RU). A negative control protein, Ly6k was immobilized on another flow cell of the same chip (˜11,000 RU), and the first flow cell was left empty for reference subtraction due to nonspecific binding. Analytes were diluted in HBS—P buffer [10 mmol/L HEPES, pH 7.4, 150 mmol/L NaCl, % 0.05 (v/v) surfactant P20], and were injected individually over all flow cells. The running buffer contained appropriate concentrations of DMSO in HBS—P to match the DMSO level of the samples. Kinetic studies for antibody- or compound-CD99 interactions were performed in a Biacore T200 instrument. Purified recombinant human full-length CD99 produced in HEK293 cells was purchased from Origene (Rockville, Md.) (#TP304056). The recombinant human full-length CD99 was immobilized on a CM5 sensor chip by the amine-coupling method in sodium acetate buffer, pH 4.0 (˜10,000 RU). The first flow cell was left empty for background signal subtraction. Kinetic characterization of the interactions was done by injecting increasing concentrations of analytes as indicated over CD99-captured and control surface. KD (equilibrium dissociation constant) values were obtained using BiaEvaluation software (version 1.0) (Biacore) (GE Healthcare). All kinetic experiments were conducted in HBS—P buffer, which contained 1% (v/v) DMSO in case of compounds.

TC-CD99-shRNA #1 cells = experiment: Soft agar colony formation assay, CD99 knockdown cells; type: cell-based, human
[3] = target: T2, CD99-ECD (extracellular domain of human CD99) (Homo sapiens, UniProt P14209); experiment: SPR binding, CD99-ECD purified from bacteria
T2 construct: the extracellular domain (Asp23-Asp122) of human CD99; made in house; host or cells: Escherichia coli BL21 (DE3)
T2 sequence (P14209 23-122): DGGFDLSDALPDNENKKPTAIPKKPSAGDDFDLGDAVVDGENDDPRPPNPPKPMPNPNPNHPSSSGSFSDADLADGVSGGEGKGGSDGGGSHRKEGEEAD
Excerpt: The Champion™ pET104 BioEase™ Gateway® Expression System (Invitrogen (Carlsbad, Calif.)) was used to produce CD99-ECD fused with a N-terminal biotin tag, as directed by the manufacturer's instructions. Briefly, the DNA sequence encoding the extracellular domain (Asp23-Asp122) of human CD99 was amplified by PCR using pcDNA3.1 expression vector (Life Technologies (Carlsbad, Calif.)) carrying the full-length human CD99 cDNA transcript variant 1 as template. The primers were designed to include an additional C-terminal 6×His tag in the protein. The PCR product was gel purified with a QIAquick gel extraction kit (Qiagen (Hilden, Germany)) and subcloned into the pDONR 221 entry vector. The entry clone was then subjected to a recombination reaction with pET104.1-DEST destination vector, an expression vector with a N-terminal BioEase tag. The presence of an insert was confirmed by DNA sequencing.
CD99-ECD was expressed in Escherichia coli BL21 (DE3) cells. A saturated overnight culture of cells was diluted by 20-fold into fresh LB medium containing 100 μg/mL ampicillin. To induce the expression of CD99-ECD, cells were grown to OD600nm 0.5-0.7 at 37° C. and induced by the addition of isopropyl-β-D-thiogalactopyranoside to a final concentration of 1 mmol/L. The cultures were grown for an additional 3 h at 37° C. Cells were harvested by centrifugation at 8,000×g for 15 min, resuspended in 50 mmol/L sodium phosphate buffer, pH 7.4, containing 500 mmol/L NaCl, 10 mmol/L imidazole and 1 Complete EDTA-free protease inhibitor tablet/50 mL (Roche Diagnostics), and lysed by sonication. […] Protein fractions were finally eluted with a linear gradient of imidazole (10 to 1000 mmol/L) in the same buffer. The purity of the protein was assessed by SDS-PAGE followed by Coomassie staining. The eluted fractions were stored at −80° C. for further use. […]

A4573 ES cells = experiment: Cell viability IC50 (WST-1), A4573; type: cell-based, human; details: WST-1, 48 h (FIG. 10B)
[4] = system: TC-71 and RD-ES cell lines; experiment: Dose-dependent cytotoxicity assay in ES cell lines; type: cell-based, human; details: dose-response at 1, 3, 10 and 30 μmol/L in TC-71 and RD-ES
Protocol: The plate was installed into the RTCA system, and the electrical impedance (represented as cell index) was measured every 10 min.
The primary screen was based on a direct binding assay using surface plasmon resonance (SPR) technology with purified extracellular domain of CD99 (CD99-ECD) protein that was immobilized on a neutravidin-coated sensor chip. […] A negative control protein was used in order to eliminate non-specific binders. […] Dose-response studies were performed with 2 compounds at 1, 3, 10 and 30 μmol/L concentration in ES cell lines.

clofarabine-5′-triphosphate was tested, and the IC50 (TC-71 ES cells) was 0.17 µM, the “colony formation (anchorage-independent growth)” value [1] was “inhibited” and the Kd [2] was 3.7 µM. For the same compound, the “colony formation in CD99 knockdown cells” value (TC-CD99-shRNA #1 cells) was “diminished”, the Kd [3] was 7.6 µM and the IC50 (A4573 ES cells) was 0.46 µM.

Work on `C=C(Cl)C(Cl)(CBr)CCC(Br)C(C)(C)Cl` (stereo not shown) [NSC662825] yielded an IC50 [4] of 9 µM.
